{"source": "patent US12297192B2", "about": "“Crystal form of pyrimidine sulfonamide compound and preparation method therefor” (WUXI BIOCITY BIOPHARMACEUTICS CO., LTD., priority 2019, dated 2025)", "key": {"[1]": {"assay": "Hygroscopicity study of Crystal Form A", "assay_type": "physicochemical", "settings": "25° C., 24 hours", "text": "Categorization in the hygroscopicity evaluation is as follows:\n• 1) Two dry stoppered glass weighing bottles (50 mm external diameter, 30 mm high) were taken and kept in a desiccator with a saturated solution of ammonium chloride in the lower part. The weighing bottles were left open."}, "[2]": {"assay": "Solid stability test for Crystal Form A (high temperature, high humidity, strong light, accelerated conditions)", "assay_type": "physicochemical", "text": "See Table 3 below for chromatographic conditions for the HPLC method of solid stability testing:\nAccording to the Guideline for Stability Testing of APIs and Formulations (Chinese Pharmacopoeia 2015 Edition, Volume IV, General Principles 9001).\nAfter being placed under high temperature and high humidity conditions, samples were placed in a desiccator for examination. On the 5th, 10th and 30th days, samples were taken for testing, and the results were compared with the initial test results on day 0. Samples placed under strong light condition were covered with a transparent lid and sealed with a sealing film and samples were taken on the 5th and 10th for testing and the results were compared to the initial test results on day 0. […] Each aliquot was placed in a double-layer LDPE bag. Each layer of LDPE bag was sealed by tying, respectively. Then the LDPE bag was placed in an aluminum foil bag and heat sealed and placed at 25° C./60% relative humidity. Samples were taken at the 3th month, 6th month, 9th month and 12th month, and placed under 40° C./75% relative humidity. Samples were taken at the 1st month, 2^ed month, 3th month and 6th month, respectively. The test results were compared with the initial test results on day 0."}, "human ETB receptors": {"molecular_target": "T1, human ETB receptors (Homo sapiens, UniProt P24530)", "T1 construct": "host or cells: CHO cells", "T1 sequence (P24530 27-442)": "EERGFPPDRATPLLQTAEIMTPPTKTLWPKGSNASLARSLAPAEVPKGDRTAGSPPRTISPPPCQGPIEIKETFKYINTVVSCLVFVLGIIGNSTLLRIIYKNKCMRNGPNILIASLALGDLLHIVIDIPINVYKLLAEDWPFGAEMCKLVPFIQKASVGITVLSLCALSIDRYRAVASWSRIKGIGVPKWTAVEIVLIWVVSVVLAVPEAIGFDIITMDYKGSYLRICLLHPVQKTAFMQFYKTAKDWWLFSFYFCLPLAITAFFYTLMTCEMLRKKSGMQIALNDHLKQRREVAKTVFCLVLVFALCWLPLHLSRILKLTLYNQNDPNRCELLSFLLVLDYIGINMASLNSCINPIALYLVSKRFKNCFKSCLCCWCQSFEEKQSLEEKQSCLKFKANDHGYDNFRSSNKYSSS", "assay": "In vitro antagonistic effect on human ETB receptors (Ca2+ fluorescence, transfected CHO cells)", "assay_type": "cell-based", "settings": "0.3 nM endothelin-1", "method": "The antagonist activities of the compounds on human ETB receptors expressed in transfected CHO cells were assessed by measuring the effects of the compounds on changes in cytoplasmic Ca^2+ ion signaling induced by an agonist of human ETB receptor using a fluorescence assay. The functional activity of the ETB receptor antagonistic effect was tested at Eurofins-Cerep SA according to current standard operating procedures.\n• 1. Cells were suspended in DMEM buffer (Invitrogen) and then distributed at a density of 3×10^4 cells/well in 384 plates (100 μL/well). • 2. HBSS buffer (Invitrogen) supplemented with 20 mM Hepes (Invitrogen) (pH 7.4) was mixed with the fluorescent probe (Fluo4 Direct, Invitrogen) and added to each well. Equilibrated with the cells for 60 minutes at 37° C. and then for 15 minutes at 22° C. • 3. The assay plate was placed in a microplate reader (CellLux, PerkinElmer). DMSO solution of the test compound and the positive control or HBSS buffer in appropriate concentration was added. […] Then the change in fluorescence intensity was measured. The fluorescence intensity is in proportion to the Ca^2+ ion concentration of the free cytosol. • 4. […] The standard positive control was BQ-788 and several concentrations were tested in each experiment and the data was analyzed using Prism to produce a concentration-response curve to calculate the IC50 values of the compounds. […]"}, "[3]": {"settings": "25° C./60% relative humidity, sealed, 3 months"}, "[4]": {"settings": "25° C./60% relative humidity, sealed, 6 months"}, "[5]": {"settings": "25° C./60% relative humidity, sealed, 9 months"}, "[6]": {"settings": "25° C./60% relative humidity, sealed, 12 months"}, "[7]": {"settings": "40° C., 75% relative humidity, sealed, 1 month"}, "[8]": {"settings": "40° C., 75% relative humidity, sealed, 2 months"}, "[9]": {"settings": "40° C., 75% relative humidity, sealed, 3 months"}, "[10]": {"settings": "40° C., 75% relative humidity, sealed, 6 months"}, "[11]": {"settings": "High humidity (room temperature/92.5% relative humidity, open), 5 days"}, "[12]": {"settings": "High humidity (room temperature/92.5% relative humidity, open), 10 days"}, "[13]": {"settings": "High humidity (room temperature/92.5% relative humidity, open), 30 days"}, "[14]": {"settings": "High temperature (60° C., open), 5 days"}, "[15]": {"settings": "High temperature (60° C., open), 10 days"}, "[16]": {"settings": "High temperature (60° C., open), 30 days"}, "[17]": {"settings": "Strong light (4500 ± 500 lux-hr, 90 μw-hr/cm^2, sealed), 5 days"}, "[18]": {"settings": "Strong light (4500 ± 500 lux-hr, 90 μw-hr/cm^2, sealed), 10 days"}}, "note": "Where “and” joins values, the source holds several entries; their conditions need not be identical. Equal values may be shown once."}
{"smiles": "COCCNS(=O)(=O)Nc1ncnc(OCCOc2ncc(Br)cn2)c1-c1ccc2c(c1)OCO2", "values": [{"measurement": "Hygroscopicity categorization", "setting": "[1]", "result": "non- or almost non-hygroscopic"}, {"measurement": "Moisture-absorption weight gain, Mean (%)", "setting": "[1]; mean of two samples, desiccator with saturated ammonium chloride solution", "result": 0.075, "unit": "%"}, {"measurement": "Weight gain percentage (%)", "setting": "[1]; single sample, desiccator with saturated ammonium chloride solution", "result": "0.11% and 0.04%"}, {"measurement": "Appearance", "setting": "[2]; 0 day (initial)", "result": "White powder"}, {"measurement": "Crystal Form", "setting": "[2]; 0 day (initial)", "result": "Crystal Form A"}, {"measurement": "Crystal Form A of the compound of formula (I) (%)", "setting": "[2]; 0 day (initial)", "result": 99.2, "unit": "%"}, {"measurement": "Total impurities (%)", "setting": "[2]; 0 day (initial)", "result": 0.26, "unit": "%"}, {"measurement": "Appearance", "setting": "[2]; [3]", "result": "White powder"}, {"measurement": "Crystal Form", "setting": "[2]; [3]", "result": "Crystal Form A"}, {"measurement": "Crystal Form A of the compound of formula (I) (%)", "setting": "[2]; [3]", "result": 100.2, "unit": "%"}, {"measurement": "Total impurities (%)", "setting": "[2]; [3]", "result": 0.13, "unit": "%"}, {"measurement": "Appearance", "setting": "[2]; [4]", "result": "White powder"}, {"measurement": "Crystal Form", "setting": "[2]; [4]", "result": "Crystal Form A"}, {"measurement": "Crystal Form A of the compound of formula (I) (%)", "setting": "[2]; [4]", "result": 100.1, "unit": "%"}, {"measurement": "Total impurities (%)", "setting": "[2]; [4]", "result": 0.20, "unit": "%"}, {"measurement": "Appearance", "setting": "[2]; [5]", "result": "White powder"}, {"measurement": "Crystal Form A of the compound of formula (I) (%)", "setting": "[2]; [5]", "result": 100.0, "unit": "%"}, {"measurement": "Total impurities (%)", "setting": "[2]; [5]", "result": 0.13, "unit": "%"}, {"measurement": "Appearance", "setting": "[2]; [6]", "result": "White powder"}, {"measurement": "Crystal Form A of the compound of formula (I) (%)", "setting": "[2]; [6]", "result": 100.1, "unit": "%"}, {"measurement": "Total impurities (%)", "setting": "[2]; [6]", "result": 0.16, "unit": "%"}, {"measurement": "Appearance", "setting": "[2]; [7]", "result": "White powder"}, {"measurement": "Crystal Form A of the compound of formula (I) (%)", "setting": "[2]; [7]", "result": 99.2, "unit": "%"}, {"measurement": "Total impurities (%)", "setting": "[2]; [7]", "result": 0.14, "unit": "%"}, {"measurement": "Appearance", "setting": "[2]; [8]", "result": "White powder"}, {"measurement": "Crystal Form A of the compound of formula (I) (%)", "setting": "[2]; [8]", "result": 99.3, "unit": "%"}, {"measurement": "Total impurities (%)", "setting": "[2]; [8]", "result": 0.14, "unit": "%"}, {"measurement": "Appearance", "setting": "[2]; [9]", "result": "White powder"}, {"measurement": "Crystal Form", "setting": "[2]; [9]", "result": "Crystal Form A"}, {"measurement": "Crystal Form A of the compound of formula (I) (%)", "setting": "[2]; [9]", "result": 100.6, "unit": "%"}, {"measurement": "Total impurities (%)", "setting": "[2]; [9]", "result": 0.13, "unit": "%"}, {"measurement": "Appearance", "setting": "[2]; [10]", "result": "White powder"}, {"measurement": "Crystal Form", "setting": "[2]; [10]", "result": "Crystal Form A"}, {"measurement": "Crystal Form A of the compound of formula (I) (%)", "setting": "[2]; [10]", "result": 100.2, "unit": "%"}, {"measurement": "Total impurities (%)", "setting": "[2]; [10]", "result": 0.20, "unit": "%"}, {"measurement": "Appearance", "setting": "[2]; [11]", "result": "White powder"}, {"measurement": "Crystal Form A of the compound of formula (I) (%)", "setting": "[2]; [11]", "result": 99.7, "unit": "%"}, {"measurement": "Total impurities (%)", "setting": "[2]; [11]", "result": 0.30, "unit": "%"}, {"measurement": "Appearance", "setting": "[2]; [12]", "result": "White powder"}, {"measurement": "Crystal Form A of the compound of formula (I) (%)", "setting": "[2]; [12]", "result": 99.5, "unit": "%"}, {"measurement": "Total impurities (%)", "setting": "[2]; [12]", "result": 0.31, "unit": "%"}, {"measurement": "Appearance", "setting": "[2]; [13]", "result": "White powder"}, {"measurement": "Crystal Form A of the compound of formula (I) (%)", "setting": "[2]; [13]", "result": 99.5, "unit": "%"}, {"measurement": "Total impurities (%)", "setting": "[2]; [13]", "result": 0.15, "unit": "%"}, {"measurement": "Appearance", "setting": "[2]; [14]", "result": "White powder"}, {"measurement": "Crystal Form A of the compound of formula (I) (%)", "setting": "[2]; [14]", "result": 100.1, "unit": "%"}, {"measurement": "Total impurities (%)", "setting": "[2]; [14]", "result": 0.30, "unit": "%"}, {"measurement": "Appearance", "setting": "[2]; [15]", "result": "White powder"}, {"measurement": "Crystal Form A of the compound of formula (I) (%)", "setting": "[2]; [15]", "result": 100.0, "unit": "%"}, {"measurement": "Total impurities (%)", "setting": "[2]; [15]", "result": 0.31, "unit": "%"}, {"measurement": "Appearance", "setting": "[2]; [16]", "result": "White powder"}, {"measurement": "Crystal Form A of the compound of formula (I) (%)", "setting": "[2]; [16]", "result": 99.1, "unit": "%"}, {"measurement": "Total impurities (%)", "setting": "[2]; [16]", "result": 0.14, "unit": "%"}, {"measurement": "Appearance", "setting": "[2]; [17]", "result": "White powder"}, {"measurement": "Crystal Form A of the compound of formula (I) (%)", "setting": "[2]; [17]", "result": 99.7, "unit": "%"}, {"measurement": "Total impurities (%)", "setting": "[2]; [17]", "result": 0.29, "unit": "%"}, {"measurement": "Appearance", "setting": "[2]; [18]", "result": "White powder"}, {"measurement": "Crystal Form A of the compound of formula (I) (%)", "setting": "[2]; [18]", "result": 99.6, "unit": "%"}, {"measurement": "Total impurities (%)", "setting": "[2]; [18]", "result": 0.30, "unit": "%"}, {"measurement": "Solid stability (conclusion in words)", "setting": "[2]; high temperature, high humidity or strong light condition", "result": "good stability"}, {"measurement": "IC50", "setting": "human ETB receptors", "result": 32, "unit": "µM"}]}
